# Key:
# [1] = molecular target: T1, human alpha 1a adrenergic receptor (Homo sapiens, UniProt P35348); experiment: Screening Assay: Alpha 1a Adrenergic Receptor Binding ([125I]-HEAT competition binding); conditions: membranes of stably transfected human alpha 1a cell line; 100 pM [125I]-HEAT
# T1 construct: expressed in transfected cells; host or cells: stably transfected human alpha 1a cell line (ATCC CRL 11140), membranes
# T1 sequence (P35348 1-466): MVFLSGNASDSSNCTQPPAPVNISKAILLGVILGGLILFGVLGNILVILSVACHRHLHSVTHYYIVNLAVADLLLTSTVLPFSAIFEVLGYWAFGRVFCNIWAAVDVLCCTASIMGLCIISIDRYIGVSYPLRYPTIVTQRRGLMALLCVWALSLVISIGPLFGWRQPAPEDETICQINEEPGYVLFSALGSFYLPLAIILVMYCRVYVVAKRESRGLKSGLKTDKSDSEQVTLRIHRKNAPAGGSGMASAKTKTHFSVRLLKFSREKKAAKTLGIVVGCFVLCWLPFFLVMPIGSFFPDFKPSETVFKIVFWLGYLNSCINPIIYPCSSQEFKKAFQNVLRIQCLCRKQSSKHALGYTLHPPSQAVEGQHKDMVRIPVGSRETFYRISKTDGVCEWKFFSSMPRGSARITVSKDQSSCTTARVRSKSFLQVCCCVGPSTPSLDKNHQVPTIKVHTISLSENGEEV
# Protocol: Screening Assay: Alpha 1a Adrenergic Receptor Binding
# Membranes prepared from the stably transfected human alpha 1a cell line (ATCC CRL 11140) were used to identify compounds that bind to the human alpha 1a adrenergic receptor. These competition binding reactions (total volume=200 μl) contained 50 mM Tris-HCl pH. 7.4, 5 mM EDTA, 150 mM NaCl, 100 pM [^125 I]-HEAT, membranes prepared from the alpha 1a cell line and increasing amounts of unlabeled ligand. Reactions were incubated at room temperature for one hour with shaking. Reactions were filtered onto Whatman GF/C glass fiber filters with a Inotec 96 well cell harvester. Filters were washed three times with ice cold buffer and bound radioactivity was determined (Ki).
# [2] = tested on: human alpha 1d adrenergic receptor; experiment: Selective Binding Assays, alpha 1d ([125I]-HEAT competition binding); conditions: alpha 1a versus alpha 1d
# Protocol: (§1) Membranes prepared from stably transfected human alpha 1d and alpha 1b cell lines (ATCC CRL 11138 and CRL 11139, respectively) were used to identify compounds that selectively bind to the human alpha 1a adrenergic receptor. These competition binding reactions (total volume=200 μl ) contained 50 mM Tris-HCl pH. 7.4, 5 mM EDTA, 150 mM NaCl, 100 pM [^125 I]-HEAT, membranes prepared from cell lines transfected with the respective alpha 1 subtype expression plasmid and increasing amounts of unlabeled ligand. Reactions were incubated at room temperature for one hour with shaking. Reactions were filtered onto Whatman GF/C glass fiber filters with a Inotec 96 well cell harvester. Filters were washed three times with ice cold buffer and bound radioactivity was determined (Ki).
# [3] = tested on: human alpha 1b adrenergic receptor; experiment: Selective Binding Assays, alpha 1b ([125I]-HEAT competition binding); conditions: alpha 1a versus alpha 1b
# Protocol: as §1
SMILES,Ki [1] [nM],selectivity in binding to alpha 1a receptors versus alpha 1d receptors [2],selectivity in binding to alpha 1a receptors versus alpha 1b receptors [3]
N#Cc1ccccc1C1(C#N)CCN(CCCNC(=O)N2C(=O)O[C@@H](C(N)=O)[C@@H]2c2ccc(F)c(F)c2)CC1 [Example 10],3.9,,
O=C(c1ccccc1)[C@@H]1OC(=O)N(C(=O)NCCCN2CCC(c3ccc(F)cc3)CC2)[C@H]1c1ccc(F)c(F)c1 [Example 11],,about 76 fold,about 27 fold

# — patent publication US6319932A, “Oxazolidinones useful as alpha 1A adrenoceptor antagonists” (Merck & Co., Inc., priority 1999, dated 2001)
